≈ marks a conversion by molar mass, not a printed value. Calls of active or inactive are those of the source. The rule behind the calls is not given here.
Legend:
Candida albicans [1] = assay: Antimicrobial activity against Candida albicans ATCC10231 assessed as fungal growth inhibition incubated for 48 hrs by Sabouraud Dextrose broth based dilution assay; assay type: functional
Acinetobacter baumannii [2] = assay: Antimicrobial activity against Acinetobacter baumannii R2889 assessed as bacterial growth inhibition incubated for 24 hrs by Muller Hinton broth based dilution assay; assay type: functional
Staphylococcus aureus [3] = assay: Antimicrobial activity against methicillin-resistant Staphylococcus aureus N315 assessed as bacterial growth inhibition incubated for 24 hrs by Muller Hinton broth based dilution assay; assay type: functional
Klebsiella pneumoniae [4] = assay: Antimicrobial activity against Klebsiella pneumoniae ATCC14581 assessed as bacterial growth inhibition incubated for 24 hrs by Muller Hinton broth based dilution assay; assay type: functional
Pseudomonas aeruginosa = assay: Antimicrobial activity against Pseudomonas aeruginosa ATCC9027 assessed as bacterial growth inhibition incubated for 24 hrs by Muller Hinton broth based dilution assay; assay type: functional
Klebsiella pneumoniae [5] = assay: Antimicrobial activity against Klebsiella pneumoniae ATCC10031 assessed as bacterial growth inhibition incubated for 24 hrs by Muller Hinton broth based dilution assay; assay type: functional
Escherichia coli [6] = assay: Antimicrobial activity against Escherichia coli ATCC25922 assessed as bacterial growth inhibition incubated for 24 hrs by Muller Hinton broth based dilution assay; assay type: functional
[7] = Hemolytic activity in rabbit RBC incubated for 1 hr by absorbance based microplate reader assay; assay type: toxicity, cell-based, Oryctolagus cuniculus, Erythrocyte; conditions: rabbit red blood cells (erythrocytes)
Staphylococcus aureus [8] = assay: Antimicrobial activity against Staphylococcus aureus ATCC29213 assessed as bacterial growth inhibition incubated for 24 hrs by Muller Hinton broth based dilution assay; assay type: functional
Candida albicans [9] = assay: Antimicrobial activity against Candida albicans CMCC98001 assessed as fungal growth inhibition incubated for 48 hrs by Sabouraud Dextrose broth based dilution assay; assay type: functional
Acinetobacter baumannii [10] = assay: Antimicrobial activity against Acinetobacter baumannii ATCC17978 assessed as bacterial growth inhibition incubated for 24 hrs by Muller Hinton broth based dilution assay; assay type: functional
Staphylococcus aureus [11] = assay: Antimicrobial activity against methicillin-resistant Staphylococcus aureus NCTC10442 assessed as bacterial growth inhibition incubated for 24 hrs by Muller Hinton broth based dilution assay; assay type: functional
Cell membrane = assay: Disruption of outer membrane integrity in Acinetobacter baumannii ATCC17978 at 25 ug/mL; conditions: dose 25.0 µg/ml
Escherichia coli [12] = assay: Induction of drug resistance in Escherichia coli ATCC25922 assessed as fold increase in MIC at sub-inhibitory concentration incubated for 21 to 22 passages; assay type: functional
Escherichia coli [13] = assay: Disruption of preformed biofilm in Escherichia coli ATCC25922 assessed as residual preformed biofilm at 0.78 ug/mL incubated for 24 hrs by crystal violet staining based analysis relative to control; assay type: functional; conditions: dose 0.78 µg/ml
Escherichia coli [14] = assay: Disruption of preformed biofilm in Escherichia coli ATCC25922 assessed as residual preformed biofilm at 6.25 ug/mL incubated for 24 hrs by crystal violet staining based analysis relative to control; assay type: functional; conditions: dose 6.25 µg/ml
Escherichia coli [15] = assay: Antibiofilm activity against Escherichia coli ATCC25922 assessed as inhibition of biofilm formation at 0.78 ug/mL incubated for 24 hrs by crystal violet staining based analysis relative to control; assay type: functional; conditions: dose 0.78 µg/ml
Escherichia coli [16] = assay: Disruption of preformed biofilm in Escherichia coli ATCC25922 assessed as residual preformed biofilm at 25 ug/mL incubated for 24 hrs by crystal violet staining based analysis relative to control; assay type: functional; conditions: dose 25.0 µg/ml
Escherichia coli [17] = assay: Antibiofilm activity against Escherichia coli ATCC25922 assessed as inhibition of biofilm formation at 6.25 ug/mL incubated for 24 hrs by crystal violet staining based analysis relative to control; assay type: functional; conditions: dose 6.25 µg/ml
Escherichia coli [18] = assay: Antibiofilm activity against Escherichia coli ATCC25922 assessed as inhibition of biofilm formation at 0.39 ug/mL incubated for 24 hrs by crystal violet staining based analysis relative to control; assay type: functional; conditions: dose 0.39 µg/ml
Escherichia coli [19] = assay: Disruption of preformed biofilm in Escherichia coli ATCC25922 assessed as residual preformed biofilm at 12.5 ug/mL incubated for 24 hrs by crystal violet staining based analysis relative to control; assay type: functional; conditions: dose 12.5 µg/ml
Escherichia coli [20] = assay: Antibiofilm activity against Escherichia coli ATCC25922 assessed as inhibition of biofilm formation at 3.125 ug/mL incubated for 24 hrs by crystal violet staining based analysis relative to control; assay type: functional; conditions: dose 3.125 µg/ml
Escherichia coli [21] = assay: Disruption of preformed biofilm in Escherichia coli ATCC25922 assessed as residual preformed biofilm at 3.125 ug/mL incubated for 24 hrs by crystal violet staining based analysis relative to control; assay type: functional; conditions: dose 3.125 µg/ml

| Compound | MIC (Candida albicans [1]) | MIC (Acinetobacter baumannii [2]) | MIC (Staphylococcus aureus [3]) | MIC (Klebsiella pneumoniae [4]) | MIC (Pseudomonas aeruginosa) | MIC (Klebsiella pneumoniae [5]) | MIC (Escherichia coli [6]) | HC50 at 1 h [7] | MIC (Staphylococcus aureus [8]) | MIC (Candida albicans [9]) | MIC (Acinetobacter baumannii [10]) | MIC (Staphylococcus aureus [11]) | further results |
| --- | --- | --- | --- | --- | --- | --- | --- | --- | --- | --- | --- | --- | --- |
| CCCCCN1CCCc2cc(OCCCCNC(=N)N)ccc21 | 50 µg/mL (≈ 150 µM) | 25 µg/mL (≈ 75.2 µM) | 1.56 µg/mL (≈ 4.69 µM) | 12.5 µg/mL (≈ 37.6 µM) | 25 µg/mL (≈ 75.2 µM) | 6.25 µg/mL (≈ 18.8 µM) | 12.5 µg/mL (≈ 37.6 µM) | 178 µg/mL | 1.56 µg/mL (≈ 4.69 µM) | 50 µg/mL (≈ 150 µM) | 12.5 µg/mL (≈ 37.6 µM) | 1.56 µg/mL (≈ 4.69 µM) |  |
| CCCCCCCN1CCCc2cc(OCC(=O)N[C@@H](CCCNC(=N)N)C(=O)OC)ccc21 | 25 µg/mL (≈ 52.6 µM) | 12.5 µg/mL (≈ 26.3 µM) | 1.56 µg/mL (≈ 3.28 µM) | 6.25 µg/mL (≈ 13.1 µM) | 12.5 µg/mL (≈ 26.3 µM) | 6.25 µg/mL (≈ 13.1 µM) | 12.5 µg/mL (≈ 26.3 µM) | > 200 µg/mL | 3.12 µg/mL (≈ 6.57 µM) | 12.5 µg/mL (≈ 26.3 µM) | 12.5 µg/mL (≈ 26.3 µM) | 1.56 µg/mL (≈ 3.28 µM) |  |
| CCCCCCCN1CCCc2cc(OCCCCCCCCNC(=N)N)ccc21 | 0.78 µg/mL (≈ 1.87 µM) | 12.5 µg/mL (≈ 30 µM) | 0.78 µg/mL (≈ 1.87 µM) | 12.5 µg/mL (≈ 30 µM) | > 50 µg/mL | 12.5 µg/mL (≈ 30 µM) | 3.12 µg/mL (≈ 7.5 µM) | > 200 µg/mL | 1.56 µg/mL (≈ 3.74 µM) | 0.39 µg/mL (≈ 0.936 µM) | 25 µg/mL (≈ 60 µM) | 0.78 µg/mL (≈ 1.87 µM) | Activity (Cell membrane): inactive |
| CC(C)=CCN1CCCc2cc(OCCCCCCNC(=N)N)ccc21 | 12.5 µg/mL (≈ 34.9 µM) | 12.5 µg/mL (≈ 34.9 µM) | 0.78 µg/mL (≈ 2.18 µM) | 6.25 µg/mL (≈ 17.4 µM) | 25 µg/mL (≈ 69.7 µM) | 6.25 µg/mL (≈ 17.4 µM) | 6.25 µg/mL (≈ 17.4 µM) | 184 µg/mL | 1.56 µg/mL (≈ 4.35 µM) | 12.5 µg/mL (≈ 34.9 µM) | 25 µg/mL (≈ 69.7 µM) | 0.78 µg/mL (≈ 2.18 µM) |  |
| CC1(C)S[C@@H]2[C@H](NC(=O)[C@H](N)c3ccc(O)cc3)C(=O)N2[C@H]1C(=O)O |  |  |  |  |  |  |  |  |  |  |  |  | fold change (FC) (Escherichia coli [12]): 16 |
| CC(C)=CCN1CCCc2cc(OCCCCCCCCCCCCNC(=N)N)ccc21 | 0.78 µg/mL (≈ 1.76 µM) | 12.5 µg/mL (≈ 28.2 µM) | 0.78 µg/mL (≈ 1.76 µM) | 3.12 µg/mL (≈ 7.06 µM) | 50 µg/mL (≈ 113 µM) | 3.12 µg/mL (≈ 7.06 µM) | 12.5 µg/mL (≈ 28.2 µM) | > 200 µg/mL | 1.56 µg/mL (≈ 3.52 µM) | 0.78 µg/mL (≈ 1.76 µM) | 12.5 µg/mL (≈ 28.2 µM) | 0.78 µg/mL (≈ 1.76 µM) |  |
| CCCCCCCCCN1CCCc2cc(OCC(=O)N[C@@H](CCCNC(=N)N)C(=O)N[C@@H](CCCNC(=N)N)C(=O)OC)ccc21 | > 50 µg/mL | 25 µg/mL (≈ 37.9 µM) | 1.56 µg/mL (≈ 2.36 µM) | 3.12 µg/mL (≈ 4.74 µM) | 6.25 µg/mL (≈ 9.47 µM) | 3.12 µg/mL (≈ 4.74 µM) | 3.12 µg/mL (≈ 4.74 µM) | > 200 µg/mL | 1.56 µg/mL (≈ 2.36 µM) | 50 µg/mL (≈ 75.8 µM) | 6.25 µg/mL (≈ 9.47 µM) | 1.56 µg/mL (≈ 2.36 µM) |  |
| POLYMYXIN B |  |  |  |  |  |  |  |  |  |  |  |  | Activity (Escherichia coli [13]): 87.5%; Activity (Escherichia coli [14]): 7.57%; inhibition (Escherichia coli [15]): 43.3%; Activity (Escherichia coli [16]): 6.65%; inhibition (Escherichia coli [17]): 100%; inhibition (Escherichia coli [18]): 22.9%; Activity (Escherichia coli [19]): 8.48%; inhibition (Escherichia coli [20]): 99.8%; Activity (Escherichia coli [21]): 19.2% |
| CCCCCCCCCN1CCCc2cc(OCC(=O)N[C@@H](CCCNC(=N)N)C(=O)OC)ccc21 | 3.12 µg/mL (≈ 6.2 µM) | 6.25 µg/mL (≈ 12.4 µM) | 1.56 µg/mL (≈ 3.1 µM) | 3.12 µg/mL (≈ 6.2 µM) | 12.5 µg/mL (≈ 24.8 µM) | 3.12 µg/mL (≈ 6.2 µM) | 6.25 µg/mL (≈ 12.4 µM) | > 200 µg/mL | 3.12 µg/mL (≈ 6.2 µM) | 3.12 µg/mL (≈ 6.2 µM) | 6.25 µg/mL (≈ 12.4 µM) | 1.56 µg/mL (≈ 3.1 µM) |  |
| O=C(O)c1cn(C2CC2)c2cc(N3CCNCC3)c(F)cc2c1=O [CIPROFLOXACIN] |  | 0.78 µg/mL (≈ 2.35 µM) | 0.39 µg/mL (≈ 1.18 µM) | 0.195 µg/mL (≈ 0.589 µM) | 0.195 µg/mL (≈ 0.589 µM) | 0.195 µg/mL (≈ 0.589 µM) | 0.049 µg/mL (≈ 0.148 µM) |  | 0.39 µg/mL (≈ 1.18 µM) |  | 0.39 µg/mL (≈ 1.18 µM) | 0.39 µg/mL (≈ 1.18 µM) |  |

Reference: ChEMBL document CHEMBL5352419, “Design, synthesis, and biological evaluation of tetrahydroquinoline amphiphiles as membrane-targeting antimicrobials against pathogenic bacteria and fungi” (Eur J Med Chem, 2022)
